Results as given in the NIST ThermoML archive (doi:10.1016/j.jct.2015.01.005).
Several values for one entry are separate records, joined by “and”; a condition that tells them apart may be missing. Equal values may be shown once.

Columns and labels:
[1] = molar heat capacity at constant pressure; details: 101.33 kPa, Crystal 2, Small (less than 1 g) adiabatic calorimetry
[2] = for molar entropy: 101.33 kPa, Small (less than 1 g) adiabatic calorimetry; for vapor or sublimation pressure: Calculated from knudsen effusion weight loss; for Triple point temperature: DTA

O[C@@H]1[C@@H](O)[C@@H]2OC[C@@H](O2)[C@H]1O [1,6-anhydro-β-D-glucopyranose]
Details | Triple point temperature [K] | molar heat capacity at constant pressure [J/K/mol]
[1], 5 K | – | 0.138
[1], 10 K | – | 1.118
[1], 15 K | – | 3.898
[1], 20 K | – | 7.99
[1], 25 K | – | 12.65
[1], 30 K | – | 17.41
[1], 35 K | – | 22.01
[1], 40 K | – | 26.36
[1], 45 K | – | 30.52
[1], 50 K | – | 34.47
[1], 60 K | – | 41.86
[1], 70 K | – | 48.71
[1], 80 K | – | 55.17
[1], 90 K | – | 61.41
[1], 100 K | – | 67.71
[1], 110 K | – | 74.28
[1], 120 K | – | 79.92
[1], 130 K | – | 85.48
[1], 140 K | – | 91.03
[1], 150 K | – | 96.6
[1], 160 K | – | 102.2
[1], 170 K | – | 107.8
[1], 180 K | – | 113.5
[1], 190 K | – | 119.2
[1], 200 K | – | 125
[1], 210 K | – | 130.9
[1], 220 K | – | 136.9
[1], 230 K | – | 143
[1], 240 K | – | 149.2
[1], 250 K | – | 155.5
[1], 260 K | – | 162
[1], 270 K | – | 168.5
[1], 280 K | – | 175.1
[1], 290 K | – | 181.7
[1], 298.15 K | – | 187.2
[1], 300 K | – | 188.5
[1], 310 K | – | 195.5
[1], 320 K | – | 202.7
[1], 330 K | – | 210.3
[1], 340 K | – | 218.6
[1], 350 K | – | 227.1
[1], 360 K | – | 235.5
[1], 370 K | – | 244
[1], 380 K | – | 252.5
[1], 384 K | – | 255.9
[2], Crystal 1 | 454 | –
[2], Crystal 2 | 384 | –

[2]
Details | molar entropy [J/K/mol] | vapor or sublimation pressure
5 K, Crystal 2 | 0.145 | –
10 K, Crystal 2 | 0.302 | –
15 K, Crystal 2 | 1.222 | –
20 K, Crystal 2 | 2.884 | –
25 K, Crystal 2 | 5.162 | –
30 K, Crystal 2 | 7.89 | –
35 K, Crystal 2 | 10.92 | –
40 K, Crystal 2 | 14.15 | –
45 K, Crystal 2 | 17.49 | –
50 K, Crystal 2 | 20.92 | –
60 K, Crystal 2 | 27.86 | –
70 K, Crystal 2 | 34.84 | –
80 K, Crystal 2 | 41.77 | –
90 K, Crystal 2 | 48.63 | –
100 K, Crystal 2 | 55.42 | –
110 K, Crystal 2 | 62.19 | –
120 K, Crystal 2 | 68.89 | –
130 K, Crystal 2 | 75.51 | –
140 K, Crystal 2 | 82.05 | –
150 K, Crystal 2 | 88.52 | –
160 K, Crystal 2 | 94.93 | –
170 K, Crystal 2 | 101.3 | –
180 K, Crystal 2 | 107.6 | –
190 K, Crystal 2 | 113.9 | –
200 K, Crystal 2 | 120.2 | –
210 K, Crystal 2 | 126.4 | –
220 K, Crystal 2 | 132.6 | –
230 K, Crystal 2 | 138.9 | –
240 K, Crystal 2 | 145.1 | –
250 K, Crystal 2 | 151.3 | –
260 K, Crystal 2 | 157.5 | –
270 K, Crystal 2 | 163.7 | –
280 K, Crystal 2 | 170 | –
290 K, Crystal 2 | 176.3 | –
298.15 K, Crystal 2 | 181.4 | –
300 K, Crystal 2 | 182.5 | –
310 K, Crystal 2 | 188.8 | –
320 K, Crystal 2 | 195.1 | –
330 K, Crystal 2 | 201.5 | –
340 K, Crystal 2 | 207.9 | –
350 K, Crystal 2 | 214.4 | –
353.55 K, Crystal 2 | – | 2.63e-05 kPa
353.56 K, Crystal 2 | – | 2.36e-05 kPa
358.59 K, Crystal 2 | – | 4.61e-05 kPa
360 K, Crystal 2 | 220.9 | –
363.6 K, Crystal 2 | – | 8.11e-05 kPa
368.61 K, Crystal 2 | – | 0.00014 kPa
368.62 K, Crystal 2 | – | 0.000141 kPa and 0.00014 kPa
370 K, Crystal 2 | 227.4 | –
373.63 K, Crystal 2 | – | 0.000248 kPa and 0.000254 kPa
373.64 K, Crystal 2 | – | 0.000243 kPa
378.63 K, Crystal 2 | – | 0.00041 kPa
378.64 K, Crystal 2 | – | 0.000426 kPa
378.65 K, Crystal 2 | – | 0.000416 kPa
380 K, Crystal 2 | 234.1 | –
383.65 K, Crystal 2 | – | 0.000688 kPa and 0.000723 kPa
383.66 K, Crystal 2 | – | 0.000727 kPa and 0.000742 kPa
384 K, Crystal 1 | 301.8 | –
384 K, Crystal 2 | 236.7 | –
